Reference: patent US12637468B2, “Substituted [1,2,4]triazolo[4,3-b]pyridazines as GABAA receptor modulators” (SHANGHAI SIMR BIOTECHNOLOGY CO., LTD., priority 2019, dated 2026)
Converted amounts (≈) assume the structure as drawn.

Key:
[1] = biological target: T1, α5-GABAA receptor (Homo sapiens, UniProt P18507+P31644); experiment: Cell-level screening: whole cell patch clamp, inverse agonist efficacy on α5-GABAA receptor expressed in HEK293; assay type: cell-based; conditions: drug 100 nM, GABA 0.05 μM, HEK293 expressing α5, β3 and γ2 subunits, clamped at −60 mV; read-out: Compound inverse agonist efficacy %
T1 construct: expressed in transfected cells; host or cells: HEK293, monoclonal stably transfected line
Procedure, shortened: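 Whole-cell patch clamp at −60 mV on HEK293 stably expressing α5β3γ2, pH 7.4 extracellular/CsCl internal solutions. Current evoked by 0.05 μM GABA, then compound in GABA solution; screening at 100 nM, dose-response 0.3–300 nM. Inverse agonist efficacy as % change of GABA current.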

[2] = Thermodynamic solubility in simulated intestinal fluid (TS in FaSSIF); assay type: physicochemical; conditions: thermodynamic from solid, 37° C.
Protocol: Simulated intestinal fluid FaSSIF: 54.76 mg of FaSSIF-V2 (Biorelevant, batch. V2FAS-0619-A, lot. V2FAS01) was weighed and added to 15 mL of a buffer solution. After dissolving, the solution was supplemented to 30 mL, and put at room temperature for 1 hour before use.
(§1) Waters e2695 HPLC high performance liquid chromatography, Mettler XSE105 analytical balance.
(§2) Firstly, a 10 mM stock solution was prepared with DMSO, and was diluted with a diluent (ACN: PB buffer 50:50) into 1 μM-200 μM as a standard solution.
Thermodynamic solubility in intestinal fluid (TS in FaSSIF) was simulated. About 0.3 mg of each sample was weighed and added to 1.5 mL of FaSSIF solution, with two parts in parallel, shaken at 1000 rpm at 37° C. for 4 hours, filtered. 1 mL of an initial filtrate was discarded, and 400 μL of the subsequent filtrate was taken. The filtrate was detected by high performance liquid chromatograph (UV).

[3] = Water solubility observed on extraction work-up; assay type: physicochemical; conditions: observed on extraction with ethyl acetate at pH=7
Protocol: Methyl 6-[7-methoxy-3-(5-methyl-isoxazol-3-yl)-[1,2,4]triazolo[4,3-b]pyridazin-6-yloxymethyl]-nicotinate (300 mg, 0.75 mmol), 1M lithium hydroxide (1.5 mL, 1.5 mmol) were sequentially added to 10 mL of ethanol, and the mixture was stirred at room temperature for 1 hour. The mixture was added with 0.5 M hydrochloric acid to neutralize to pH=7, diluted with water, extracted with ethyl acetate. […] LC-MS: m/z [M+H]^+=383.

[4] = Rat liver microsome stability (RLM) experiment; assay type: in vitro ADME; conditions: rat liver microsomal stability
Protocol: Effect embodiment 3 Rat liver microsome stability (RLM) experiment
Rat liver microsomes (Xenotech, item No. R1000, lot No. 1310030), 100 mM potassium phosphate buffer solution (pH 7.4), 10 mM magnesium chloride.
Compound preparation: 5 μL of compound DMSO mother liquor (10 mM) was added to 495 μL of methanol to obtain an intermediate solution with a compound concentration of 100 μM. Then 50 μL of the intermediate solution was taken and dissolved in 450 μL of potassium phosphate buffer solution to obtain a test solution with a final concentration of 10 μM.
NADPH regeneration system (concentration of isocitrate dehydrogenase 1 unit/mL).
Liver microsomes (final concentration 0.5 mg protein/mL).
Reaction termination solution: cold acetonitrile containing 100 ng/mL Tolbutamide and 100 ng/mL Labetalol as an internal standard.
• (1) Preparation of buffer solution: • Buffer solution A: 1.0 L of 0.1 M potassium phosphate buffer solution containing 1.0 mM EDTA • Buffer solution B: 1.0 L of 0.1 M dipotassium phosphate buffer solution containing 1.0 mM EDTA • Buffer solution C: 0.1 M potassium phosphate buffer, 1.0 mM EDTA, pH 7.4, titrated with 700 mL of buffer solution B and buffer solution A, monitored by pH meter. • (2) Preparation of reference substance (ketanserin) and concentration of administration solution of the test substance:
[…]: […] 10 mM DMSO reference substance stock solution and test substance stock solution were added to 190 μL of ACN, respectively. 1.5 μM administration solution (containing 0.75 mg/mL liver microsomes): […] administration solution and 18.75 μL of 20 mg/mL liver microsomes were added to 479.75 μL of buffer C on a wet ice. • (3) NADPH was added to buffer solution C to obtain a NADPH stock solution (6 mM). • (4) 30 μL of 1.5 μM administration solution (containing 0.75 mg/mL of liver microsomes) was taken on the wet ice and added to the wells of the test plate at different time points (0-, 5-, 15-, 30-, 45-min), respectively. • (5) Firstly, 135 μL of ACN containing IS was added to the wells of a 0 min test plate, and then 15 μL of the NADPH stock solution (6 mM) was added. • (6) The test plate at other time points and the NADPH stock solution were pre-heated in a 37° C. water bath for 5 minutes. • (7) 15 μL of the NADPH stock solution (6 mM) was taken and added to a pre-incubated test plate, and the reaction was started and timed. • (8) At 5 min, 15 min, 30 min and 45 min, 135 μL of CAN containing IS was added to the corresponding test plate respectively, and the test was completed. • (9) Test plates were shaken with a shaker (IKA, MTS 2/4) for 10 min (600 rpm/min) and then centrifuged for 15 min (Thermo Multifuge×3R, 5594 g). • (10) 50 μL of supernatant from each well was added to a 96-well sample plate containing 50 μL of ultrapure water (Millipore, ZMQS50F01), and the samples were analyzed by LC/MS.

[5] = Pharmacokinetic experiment on rats: brain entry ratio (brain tissue/plasma concentration ratio); assay type: in vivo; conditions: rat, male SD rats, po 10 mg/kg
Protocol: The drug concentration ratio of plasma and brain tissue in the pharmacokinetic experiment on rats was used to evaluate the entry of compounds into brain. All rats fasted overnight before administration; the test compounds were dissolved and administered orally (po) to male SD rats, with 3 rats in each group. After administration of the test compounds, blood was collected by jugular vein puncture at 0.5 hours with about 0.25 mL per sample. The whole brain was taken at the same time. The plasma and brain tissue drug concentration were determined by LC-MS/MS method, and the pharmacokinetic parameters were calculated by Phoenix WinNonlin7.0. The dosage was 10 mg/kg, and the vehicle was 5% CMC-Na aqueous solution.

[6] = test system: α5-GABAA receptor; conditions: cited from earlier work
[7] = test system: α5-GABAA receptor; conditions: in vivo; cited from earlier work
[8] = test system: α5-GABAA receptor; conditions: in vivo; cited from earlier work; remark: listed apart in the source
[9] = Thermodynamic solubility in phosphate buffer solution (TS in PBS); assay type: physicochemical; conditions: aqueous buffer, thermodynamic from solid, 50 mM phosphate buffer solution pH 7.4, shaken at room temperature for 24 hours
Protocol: 50 mM phosphate buffer solution pH=7.4:0.39 g of NaH2PO4·2H2O, and 1.4025 g of Na2HPO4 were weighted and placed in an erlenmeyer flask, then 240 mL of water was added thereto. The solid was dissolved and mixed thoroughly, and the pH value was adjusted to 7.4 with 10M NaOH solution, and the resulting solution was transferred to a 250 mL volumetric flask, followed by dilution to scale with water.
as §1, §2
Thermodynamic solubility in phosphate buffer solution (TS in PBS). 1 mg of the sample was weighed, and 1.5 mL of 50 mM phosphate buffer solution (pH 7.4) was added thereto, then the mixture was shaken at room temperature for 24 hours to ensure that the sample was saturated, and filtered. The filtrate was detected with the high performance liquid chromatograph (UV). The compounds of the present disclosure and comparative compounds are tested by this method, and the results are shown in Table 3 below: […]

[10] = Pharmacokinetic experiment on rats: maximum plasma drug concentration (Cmax); assay type: in vivo, rat; conditions: male SD rats, po, 10 mg/kg, vehicle 5% CMC-Na aqueous solution
Protocol: In the pharmacokinetic experiment on rats, the maximum plasma drug concentration (Cmax) was used to evaluate the absorption of the compounds in rats. All rats fasted overnight before administration; the test compounds were dissolved and administered orally (po) to male SD rats, with 3 rats in each group. After administration of the test compounds, blood was collected by jugular vein puncture at […] with about 0.25 mL per sample. The plasma drug concentration was determined by LC-MS/MS method, and the pharmacokinetic parameters were calculated by Phoenix WinNonlin7.0. The dosage was 10 mg/kg, and the vehicle was 5% CMC-Na aqueous solution.

[11] = Table 4, 0.5 mg protein/mL, NADPH, 37° C., 0-45 min
[12] = Table 5, compounds of the disclosure and comparative compounds

T1 sequence (P31644 32-462): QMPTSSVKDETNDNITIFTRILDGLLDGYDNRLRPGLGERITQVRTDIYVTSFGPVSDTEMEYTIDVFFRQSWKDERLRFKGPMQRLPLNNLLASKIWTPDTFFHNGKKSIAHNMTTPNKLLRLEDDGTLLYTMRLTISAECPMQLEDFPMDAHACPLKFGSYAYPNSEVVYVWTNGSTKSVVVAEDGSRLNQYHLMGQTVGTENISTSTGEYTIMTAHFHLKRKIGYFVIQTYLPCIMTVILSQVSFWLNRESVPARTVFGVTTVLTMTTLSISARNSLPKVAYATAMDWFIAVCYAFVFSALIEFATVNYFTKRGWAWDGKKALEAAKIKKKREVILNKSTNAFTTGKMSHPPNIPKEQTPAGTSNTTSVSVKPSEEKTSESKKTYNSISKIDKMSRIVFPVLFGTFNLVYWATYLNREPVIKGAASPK
T1 sequence (P28472 26-473 partner): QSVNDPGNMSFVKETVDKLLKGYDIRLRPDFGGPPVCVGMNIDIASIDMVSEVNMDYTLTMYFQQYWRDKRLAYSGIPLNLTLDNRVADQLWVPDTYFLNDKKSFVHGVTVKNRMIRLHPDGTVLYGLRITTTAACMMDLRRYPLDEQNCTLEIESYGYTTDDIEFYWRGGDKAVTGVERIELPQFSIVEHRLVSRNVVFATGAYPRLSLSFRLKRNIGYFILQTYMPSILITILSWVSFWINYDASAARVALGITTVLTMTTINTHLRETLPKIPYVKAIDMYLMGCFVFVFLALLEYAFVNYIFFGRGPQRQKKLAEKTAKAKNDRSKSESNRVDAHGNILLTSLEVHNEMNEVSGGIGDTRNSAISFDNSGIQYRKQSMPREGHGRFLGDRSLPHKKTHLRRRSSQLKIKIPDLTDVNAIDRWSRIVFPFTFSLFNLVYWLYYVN
T1 sequence (P18507 40-467 isoform P18507-1 limits assumed): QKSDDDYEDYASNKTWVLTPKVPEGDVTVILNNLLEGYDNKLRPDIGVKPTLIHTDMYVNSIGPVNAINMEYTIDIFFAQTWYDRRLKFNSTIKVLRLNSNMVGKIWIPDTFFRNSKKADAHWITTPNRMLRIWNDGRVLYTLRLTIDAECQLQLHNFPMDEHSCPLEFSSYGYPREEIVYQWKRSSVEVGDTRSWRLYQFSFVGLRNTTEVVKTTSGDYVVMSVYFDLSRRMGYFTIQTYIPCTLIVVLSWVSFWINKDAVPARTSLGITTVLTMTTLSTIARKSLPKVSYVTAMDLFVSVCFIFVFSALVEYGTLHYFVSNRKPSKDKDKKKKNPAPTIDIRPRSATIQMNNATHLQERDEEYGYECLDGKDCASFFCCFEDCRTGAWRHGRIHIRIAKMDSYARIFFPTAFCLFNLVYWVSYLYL

COc1cc2nnc(-c3cc(C)on3)n2nc1OCc1ccc(C(=O)O)cn1 [Embodiment 63, 6-(((7-Methoxy-3-(5-methylisoxazol-3-yl)-[1,2,4]triazolo[4,3-b]pyridazin-6-yl)oxy)methyl)nicotinate]
inhibition at 0.1 µM [1]: 24.2% | solubility thermodynamic at 4 h [2]: 307 µg/mL (≈ 803 µM) | water solubility [3]: good water solubility

COc1cc2nnc(-c3cc(C)on3)n2nc1OCc1ccc2c(n1)CCN(C1CCOC1)C2 (stereo not shown) [Embodiment 183]
inhibition at 0.1 µM [1]: 55.8% | RLM [4, 11]: 5 µL/min/mg | Kp at 0.5 h ([5]; Table 7): 0.0183

COc1cc2nnc(-c3cc(C)on3)n2nc1OCc1ccc2nc(C#N)cn2n1 [Embodiment 211, 6-(((7-Methoxy-3-(5-methylisoxazol-3-yl)-[1,2,4]triazolo[4,3-b]pyridazin-6-yl)oxy)methyl)imidazo[1,2-b]pyridazine-2-carbonitrile]
inhibition at 0.1 µM [1]: 64.7% | RLM [4, 11]: 5 µL/min/mg | Kp at 0.5 h ([5]; Table 7): 0.018

CCOC(=O)c1ncn2c1[C@@H]1CCCN1C(=O)c1cc(OC)ccc1-2 [L-655,708]
suppression of the current ([6]; GABA 1 μM, highest concentration of L-655,708): 15% | inhibition of the current induced by low concentrations of GABA ([6]; GABA 5, 50 and 500 nM): dose-dependently inhibited | inhibitory effect on the current induced by GABA ([6]; GABA concentration increased above 1 μM): no inhibitory effect

Cn1ncnc1COc1nn2c(-c3cc(CO)on3)nncc2c1C(C)(C)C [MRK016-M3]
inhibition of (3H)RO-15-1788 binding in the central nervous system [7]: hardly inhibit

Cc1cc(-c2nncc3c(C(C)(C)C)c(OCc4ncnn4C)nn23)no1 [MRK-016]
inhibition of (3H)RO-15-1788 binding in the central nervous system [7]: effectively inhibit | therapeutic effects on the treatment of cognition related diseases in animal models [8]: good therapeutic effects

COc1cc2nnc(-c3cc(C)on3)n2nc1OCc1ccccn1 [drawing 916]
solubility thermodynamic at 24 h [9]: 20.1 µg/mL (≈ 59.4 µM)

Cc1cc(-c2nnc3c4ccccc4c(OCc4ccccn4)nn23)no1 [drawing 917]
solubility thermodynamic at 24 h [9]: 0.3 µg/mL (≈ 0.837 µM)

Cc1cc(-c2nnc3cc(C(C)(C)C)c(OCc4ccccn4)nn23)no1 [drawing 918]
solubility thermodynamic at 24 h [9]: 2.6 µg/mL (≈ 7.13 µM)

CCNC(=O)c1ccc(COc2nn3c(-c4cc(C)on4)nnc3cc2OC)nc1 [drawing 919]
solubility thermodynamic at 24 h [9]: 14.2 µg/mL (≈ 34.7 µM)

CCNC(=O)c1ccc(COc2nn3c(-c4cc(C)on4)nnc3c3ccccc23)nc1 [drawing 920]
solubility thermodynamic at 24 h [9]: 0.8 µg/mL (≈ 1.86 µM)

CCNC(=O)c1ccc(COc2nn3c(-c4cc(C)on4)nnc3cc2C(C)(C)C)nc1 [drawing 921]
solubility thermodynamic at 24 h [9]: 2.5 µg/mL (≈ 5.74 µM)

COc1cc2nnc(-c3cc(C)on3)n2nc1OCc1ccccn1 [drawing 922]
RLM [4, 12]: 0.3 µL/min/mg

Cc1cc(-c2nnc3c4ccccc4c(OCc4ccccn4)nn23)no1 [drawing 923, reference compound]
RLM [4, 12]: 28.2 µL/min/mg

Cc1cc(-c2nnc3cc(C(C)(C)C)c(OCc4ccccn4)nn23)no1 [drawing 924, reference compound]
RLM [4, 12]: 33.6 µL/min/mg

CCNC(=O)c1ccc(COc2nn3c(-c4cc(C)on4)nnc3cc2OC)nc1 [drawing 925]
RLM [4, 12]: 11.4 µL/min/mg

CCNC(=O)c1ccc(COc2nn3c(-c4cc(C)on4)nnc3c3ccccc23)nc1 [drawing 926, reference compound]
RLM [4, 12]: 26 µL/min/mg

CCNC(=O)c1ccc(COc2nn3c(-c4cc(C)on4)nnc3cc2C(C)(C)C)nc1 [drawing 927, reference compound]
RLM [4, 12]: 142.6 µL/min/mg

COc1cc2nnc(-c3cc(C)on3)n2nc1OCc1ccccn1 [drawing 928]
Maximum plasma drug concentration [10]: 1778 ng/mL | Kp at 0.5 h ([5]; Table 6): 0.07

Cc1cc(-c2nnc3c4ccccc4c(OCc4ccccn4)nn23)no1 [drawing 929, reference compound]
Maximum plasma drug concentration [10]: 25.7 ng/ mL ng/mL | Kp at 0.5 h ([5]; Table 6): 1.51

Cc1cc(-c2nnc3cc(C(C)(C)C)c(OCc4ccccn4)nn23)no1 [drawing 930, reference compound]
Maximum plasma drug concentration [10]: 216 ng/mL | Kp at 0.5 h ([5]; Table 6): 0.651

Cc1cc(-c2nnc3c4ccccc4c(OCc4cn(C)nn4)nn23)no1 [α5IA]
therapeutic effects on the treatment of cognition related diseases in animal models [8]: good therapeutic effects
